Entries after “also recorded” stand apart in the source; their conditions may differ. Each block holds one molecule with its values, some of them ahead of it.
How the values were obtained:
PKCδ = PKCδ translocation in ETFR cells; assay type: cell-based, rat; conditions: 100 nM fMLF, 10 μg/ml CaG or PMA 500 nM, 37° C. 10 min
Protocol: ETFR cells were seeded on coverslips and cultured overnight in DMEM containing 1% FCS at 37° C. After further culture in FCS-free DMEM for 3 h, cells were treated with stimulants for indicated time periods at 37° C. and were then fixed in 4% paraformaldehyde for 5 min at room temperature. […] The rabbit anti-PKCα/β, δ, and ξ, antibodies (1:1000 in DPBS) were applied separately for 1 h at room temperature. After three rinses with DPBS, the cells were stained with FITC-labeled goat anti-rabbit secondary antibody (PharMingen, 1:1000 in DPBS) for 1 h at room temperature. The coverslips were mounted with an anti-fade, water-based mounting medium with Propidium Iodide (PI) (Vector Lab, Burlingamem, Calif.) and analyzed under a laser scanning confocal fluorescence microscope (Zeiss LSM510 NLO Meta, Jena, Germany).

PKC isozymes = assay: PKC translocation in parental RBL cells; assay type: cell-based, rat; conditions: 100 nM fMLF, 10 μg/ml CaG or PMA 500 nM, 37° C. 10 min
PKCζ = PKCζ translocation in ETFR cells (confocal microscopy); assay type: cell-based, rat; conditions: 100 nM fMLF, 10 μg/ml CaG or PMA 500 nM, 37° C. 10 min
Protocol: (§1) ETFR cells were seeded on coverslips and cultured overnight in DMEM containing 1% FCS at 37° C. After further culture in FCS-free DMEM for 3 h, cells were treated with stimulants for indicated time periods at 37° C. and were then fixed in 4% paraformaldehyde for 5 min at room temperature. The cells were permeabilized with 0.2% Tween 20 for 30 min at 4° C. and the reaction was blocked with 5% goat normal serum for 15 min at room temperature. The rabbit anti-PKCα/β, δ, and ξ, antibodies (1:1000 in DPBS) were applied separately for 1 h at room temperature. After three rinses with DPBS, the cells were stained with FITC-labeled goat anti-rabbit secondary antibody (PharMingen, 1:1000 in DPBS) for 1 h at room temperature. The coverslips were mounted with an anti-fade, water-based mounting medium with Propidium Iodide (PI) (Vector Lab, Burlingamem, Calif.) and analyzed under a laser scanning confocal fluorescence microscope (Zeiss LSM510 NLO Meta, Jena, Germany). Excitation wavelengths 488 (for FITC) and 568 (for PI) nm were used to generate fluorescence emission in green and red, respectively.

PKCα/β = PKCα/β translocation in ETFR cells; assay type: cell-based, rat; conditions: 100 nM fMLF, 10 μg/ml CaG or PMA 500 nM, 37° C. 10 min
Protocol: as §1

monocytes = assay: Chemotaxis assay, monocytes; assay type: cell-based, human
Protocol: Human PBMC were isolated from leukopacks obtained through the courtesy of Transfusion Medicine Department, National Institutes of Health Clinical Center (Bethesda, Md.) by Ficoll-Hypaque density gradient centrifugation. Monocytes were purified from human PBMC by Percoll gradient to yield>90% pure preparations. […] H. Ali and R. Snyderman, Duke University (Durham, N.C.) and maintained in the presence of 0.8 mg/ml geneticin (G418, Life Technologies, Rockville, Md.) in DMEM supplemented with 10% FCS. B. Chemotaxis assay Migration of phagocytes and ETFR cells was assessed using a 48-well microchemotaxis chamber (Neuroprobe, Cabin John, Md.) as previously described (Hu et al. (2001) J Leukoc Biol 70 15512). Briefly, different concentrations of stimulants were placed in the wells of the lower compartment of the chamber, and 50 μl cells (1.5×10^6 cells/ml for monocyte and neutrophil, 1×10^6 ETFR cells/ml) were added to the wells of the upper compartment. The lower and upper compartments were separated by either a 5-μm (for monocyte) or a 10-μm pore size, collagen-coated (for ETFR cells) polycarbonate filter (Osmonics, Livermore, Calif.). After incubation at 37° C. in humidified air with 5% CO2 (60 min for neutrophils, 90 min for monocytes, 4.5 h for ETFR cells), the filter was removed and stained, and the cells migrating across the filter were counted with light microscopy. The results are presented as the mean number of cells (±SD) in three high power fields (HPFs). […] After thorough washing with cold medium (RPMI 1640, 1% BSA), the cells were resuspended and assayed. To measure the effect of various signaling inhibitors, unless otherwise indicated, the cells were pre-incubated at 37° C. for 60 min with the inhibitors, and were then added to the upper wells of the chemotaxis chamber.

neutrophils = assay: Chemotaxis assay, neutrophils; assay type: cell-based, human; conditions: human neutrophils
Protocol: (§2) Human PBMC were isolated from leukopacks obtained through the courtesy of Transfusion Medicine Department, National Institutes of Health Clinical Center (Bethesda, Md.) by Ficoll-Hypaque density gradient centrifugation. Monocytes were purified from human PBMC by Percoll gradient to yield>90% pure preparations. […] H. Ali and R. Snyderman, Duke University (Durham, N.C.) and maintained in the presence of 0.8 mg/ml geneticin (G418, Life Technologies, Rockville, Md.) in DMEM supplemented with 10% FCS. B. Chemotaxis assay Migration of phagocytes and ETFR cells was assessed using a 48-well microchemotaxis chamber (Neuroprobe, Cabin John, Md.) as previously described (Hu et al. (2001) J Leukoc Biol 70 15512). Briefly, different concentrations of stimulants were placed in the wells of the lower compartment of the chamber, and 50 μl cells (1.5×10^6 cells/ml for monocyte and neutrophil, 1×10^6 ETFR cells/ml) were added to the wells of the upper compartment. The lower and upper compartments were separated by either a 5-μm (for monocyte) or a 10-μm pore size, collagen-coated (for ETFR cells) polycarbonate filter (Osmonics, Livermore, Calif.). After incubation at 37° C. in humidified air with 5% CO2 (60 min for neutrophils, 90 min for monocytes, 4.5 h for ETFR cells), the filter was removed and stained, and the cells migrating across the filter were counted with light microscopy. The results are presented as the mean number of cells (±SD) in three high power fields (HPFs). For analysis of cross-desensitization, cells were pretreated with indicated reagents for 1 h at 37° C. After thorough washing with cold medium (RPMI 1640, 1% BSA), the cells were resuspended and assayed. To measure the effect of various signaling inhibitors, unless otherwise indicated, the cells were pre-incubated at 37° C. for 60 min with the inhibitors, and were then added to the upper wells of the chemotaxis chamber.

FPR [1] = biological target: T1, FPR (Homo sapiens, UniProt P21462); assay: Chemotaxis assay, RBL cells transfected with FPR (ETFR cells); assay type: cell-based; conditions: for inhibition of ETFR cell chemotaxis to CaG: CaG 10 μg/ml; for inhibition of ETFR cell chemotaxis to fMLF: fMLF 100 nM
T1 construct: expressed in transfected cells; host or cells: Rat basophilic leukemia (RBL) cells, stably transfected (ETFR cells); gift of H. Ali and R. Snyderman, Duke University
T1 sequence (P21462 1-350): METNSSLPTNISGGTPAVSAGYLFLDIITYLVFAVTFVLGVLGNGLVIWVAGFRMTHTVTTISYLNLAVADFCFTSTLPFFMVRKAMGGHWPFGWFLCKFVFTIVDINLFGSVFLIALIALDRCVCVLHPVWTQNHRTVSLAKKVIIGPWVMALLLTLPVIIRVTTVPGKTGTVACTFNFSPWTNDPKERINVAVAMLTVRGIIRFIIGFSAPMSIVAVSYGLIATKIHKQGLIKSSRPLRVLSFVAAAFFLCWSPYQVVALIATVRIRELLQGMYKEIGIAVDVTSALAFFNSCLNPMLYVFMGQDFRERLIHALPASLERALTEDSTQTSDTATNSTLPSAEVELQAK
Protocol: as §2

FPR [2] = biological target: T1, FPR; assay: Chemotactic activity for ETFR cells after α1-ACT treatment of stimulants and supernatants; assay type: cell-based; conditions: α1-ACT 0.75 μM
Protocol: ETFR and RBL cells (10×10^6/ml) were incubated with medium or 10 μg/ml CaG at 37° C. for 1 h. Supernatants were collected and measured for chemotactic activity for un-treated ETFR cells.
as §2
Cleavage by proteases is required for regulation of the function of a number of molecules in triggering proper physiological processes. […] Therefore, we examined whether interaction of FPR with CaG might cleave FPR to generate a new defacto agonist for this receptor, such as in the model of thrombin activation of its receptors. ETFR cells were cultured with CaG under the conditions that are sufficient for cleavage of other proteins by CaG (Kinlough-Rathbone et al. (1999) Thromb Res 95, 31524). The supernatant was collected and examined for its chemotactic activity for FPR. […]

Molecule: CCCCCCCCCCCCCC(=O)O[C@@H]1[C@@H](C)[C@@]2(O)[C@@H](C=C(CO)C[C@]3(O)C(=O)C(C)=C[C@@H]23)[C@@H]2C(C)(C)[C@]12OC(C)=O [PMA]
- translocation of PKCδ (PKCδ): induced translocation of PKCζ, PKCα/β, and PKCδ in ETFR and RBL cells
- PKC translocation in parental RBL cells (PKC isozymes): activated these PKC isozymes in both ETFR and RBL cells; also recorded: induced translocation of PKCζ, PKCα/β, and PKCδ in ETFR and RBL cells
- translocation of PKCζ (PKCζ): activated these PKC isozymes in both ETFR and RBL cells; also recorded: induced translocation of PKCζ, PKCα/β, and PKCδ in ETFR and RBL cells
- translocation of PKCα/β (PKCα/β): activated these PKC isozymes in both ETFR and RBL cells; also recorded: induced translocation of PKCζ, PKCα/β, and PKCδ in ETFR and RBL cells

Molecule: C/C=C/C[C@@H](C)[C@@H](O)[C@H]1C(=O)N[C@@H](CC)C(=O)N(C)CC(=O)N(C)[C@@H](CC(C)C)C(=O)N[C@@H](C(C)C)C(=O)N(C)[C@@H](CC(C)C)C(=O)N[C@@H](C)C(=O)N[C@H](C)C(=O)N(C)[C@@H](CC(C)C)C(=O)N(C)[C@@H](CC(C)C)C(=O)N(C)[C@H](C(C)C)C(=O)N1C [CsH, Cyclosporin H, reference compound]
- inhibition of monocyte chemotaxis to CaG (monocytes; CaG 10 μg/ml): abolished monocyte chemotaxis to CaG and fMLF
- inhibition of monocyte chemotaxis to fMLF (monocytes; fMLF 10 nM): abolished monocyte chemotaxis to CaG and fMLF

Molecule: CN(C)CCCn1cc(C2=C(c3c[nH]c4ccccc34)C(=O)NC2=O)c2ccccc21 [Gö 6850, bisindolylmaleimide I]
- inhibition of neutrophil chemotaxis to CaG (neutrophils): did not have any effect
- inhibition of neutrophil chemotaxis to IL-8 (neutrophils): did not have any effect
- inhibition of neutrophil chemotaxis to fMLF (neutrophils): did not have any effect
- inhibition of ETFR cell chemotaxis to CaG (FPR [1]): limited effect on fMLF- and CaG-induced ETFR cell migration
- inhibition of ETFR cell chemotaxis to fMLF (FPR [1]): limited effect on fMLF- and CaG-induced ETFR cell migration

Molecule: CN[C@@H]1C[C@H]2O[C@@](C)([C@@H]1OC)n1c3ccccc3c3c4c(c5c6ccccc6n2c5c31)C(=O)NC4 [Staurosporine, reference compound]
- inhibition of ETFR cell chemotaxis to CaG (FPR [1]): abrogated chemotaxis of ETFR cells induced by either CaG or fMLF
- inhibition of ETFR cell chemotaxis to fMLF (FPR [1]): abrogated chemotaxis of ETFR cells induced by either CaG or fMLF

- effect on chemotactic activity of supernatant from CaG-digested ETFR cells (FPR [2]; 15 min room temperature): completely abolished
- effect on chemotactic activity of supernatants from CaG-treated RBL cells (FPR [2]; 15 min room temperature): inhibited by α1-ACT
B1: α1-ACT: α1-antichymotrypsin, CaG inhibitor (protein, UniProt P01011 24-423, looked up)
Alpha-1-antichymotrypsin: HPNSPLDEENLTQENQDRGTHVDLGLASANVDFAFSLYKQLVLKAPDKNVIFSPLSISTALAFLSLGAHNTTLTEILKGLKFNLTETSEAEIHQSFQHLLRTLNQSSDELQLSMGNAMFVKEQLSLLDRFTEDAKRLYGSEAFATDFQDSAAAKKLINDYVKNGTRGKITDLIKDLDSQTMMVLVNYIFFKAKWEMPFDPQDTHQSRFYLSKKKWVMVPMMSLHHLTIPYFRDEELSCTVVELKYTGNASALFILPDQDKMEEVEAMLLPETLKRWRDSLEFREIGELYLPKFSISRDYNLNDILLQLGIEEAFTSKADLSGITGARNLAVSQVVHKAVLDVFEEGTEASAATAVKITLLSALVETRTIVRFNRPFLMIIVPTDTQNIFFMSKVTNPKQA
- effect on chemotactic activity of CaG (FPR [2]; CaG 10 μg/ml): significantly reduced chemotactic activity
- effect on chemotactic activity of fMLF (FPR [2]; fMLF 100 nM): did not affect the chemotactic activity of fMLF for FPR
